We go through two compounds from patent US20050014942A1, “Amide derivatives and drugs” (priority 2001, published 2005).

In data set [1] the test system is collagen production induced by TGF-β (TIG-3 cells). The experiment in a line: Inhibitory effect on collagen production induced by TGF-β, [3H] proline uptake (TIG-3 cells). Format: cell-based. The settings on record: Homo sapiens, TGF-β1 3 ng/ml. The method, then:
As an index of collagen production, the uptake of [^3H] proline was measured.
Using a 96-well microplate, normal human skin derived fibroblast (NHDF, 10^4/well) or human embryonic lung fibroblast (TIG-3, 10^4/well) were cultured in a 10% fetal calf serum (FCS)-containing Dulbecco's modified Eagle medium (DMEM) for one day. After removing the culture supernatant, the cells were washed once with a 0.1% bovine serum albumin (BSA)-containing DMEM medium and then cultured in the 0.1% bovine serum albumin (BSA)-containing DMEM medium for one day. After adding each of the test compounds in each concentration (1, 3, 10 μM), the cells were cultured and, after adding TGF-β1 (3 ng/ml) and [^3H] proline (18.5 kBq/well), the cells were further cultured for additional one day.
After removing the culture supernatant, the cells were washed twice with a phosphate buffer solution (PBS) and dissolved with 0.3M NaOH and 1% sodium dodecylsulfate (SDS), and then each protein fraction was precipitated with trichloroacetic acid (TCA) After the precipitate was filtered through a glass filter (GF/B) and washed, the quantity of [^3H] proline on the glass filter was measured by a liquid scintillation counter. The number of cells was measured by a cell growth measuring kit (XTT, Roche) and the uptake of [^3H] proline was corrected by the number of cells. Inhibitory ratio was calculated as compared with the case where a difference between the uptake of [^3H] proline with or without TGF-β1.

Data set [2] has as its system collagen production induced by TGF-β (NHDF cells). The data set can be described thus: Inhibitory effect on collagen production induced by TGF-β, [3H] proline uptake (NHDF cells). Format: cell-based, human. The settings on record: Homo sapiens, NHDF, 10 μM, TGF-β1 3 ng/ml. The gist of the method:
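NHDF or TIG-3 fibroblasts, serum-starved one day in 0.1% BSA DMEM, received test compound (1, 3, 10 μM), then TGF-β1 (3 ng/ml) plus [3H] proline for one more day. TCA-precipitated protein radioactivity was counted and corrected for XTT cell number. Inhibition is relative to the TGF-β1-induced uptake difference.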

Data set [3] concerns mice. The experiment in a line: Acute toxicity. Type of data set: in vivo. As to conditions: oral 1000 mg/kg, observed for a week after administration. The method, then: Each of the compounds in Examples 1, 9, 31, 120, and 121 was administered.
Data set [4] can be described thus: Measurement of concentration of compound in rat plasma. Type of data set: in vivo. As to conditions: oral 10 mg/kg. Here is the method: Each of the test compounds was dissolved or suspended in methyl cellulose and the resulting solution or suspension was orally administered to rats at a dosage of 10 mg/kg and blood was collected after 0.25 hours, 1 hour and 4 hours. The concentration in plasma in each of the compounds was measured by HPLC.

Regarding `Cc1ncsc1CCNC(=O)c1cnc(N2CCN(C(=O)c3c(-c4ccccc4)n(C)c4cccnc34)CC2)cn1` [Example 7, 5-{4-[(1-methyl-2-phenyl-1H-pyrrolo[3,2-b]pyridin-3-yl)carbonyl]piperazin-1-yl}-N-[2-(4-methyl-1,3-thiazol-5-yl)ethyl]pyrazine-2-carboxamide], the melting point came to 224.6 °C.

Turning to `Cc1ccc2c(c1)c(C(=O)N1CCN(c3cnc(C(=O)NCCCn4ccnc4)cn3)CC1)c(-c1ccccc1)n2C` [Example 31, 5-{4-[(1,5-dimethyl-2-phenyl-1H-indol-3-yl)carbonyl]piperazin-1-yl}-N-[3-(1H-imidazol-1-yl)propyl]pyrazine-2-carboxamide], the inhibition at 3 µM in data set [1] (3 μM) was 36%. The inhibition at 10 µM was 90% in data set [1] (10 μM) and 74% in data set [2]. The “Acute toxicity: deaths” value in data set [3] was “no deaths were observed”. This compound registered a concentration at 0.25 h in data set [4] (after 0.25 hours) of 320 to 370 ng/mL. This compound yielded a concentration at 1 h in data set [4] (after 1 hour) of 320 to 640 ng/mL. The compound further registered a concentration at 4 h in data set [4] (after 4 hours) of 420 to 650 ng/mL.

A word on the melting point: it is the temperature, or range, at which the solid turns liquid. For orientation: inhibition means the drop in the measured response relative to a control, in per cent.
